Results taken from ChEMBL document CHEMBL4402594, “Interrogating the Lactate Dehydrogenase Tetramerization Site Using (Stapled) Peptides” (J Med Chem, 2020).
Structures can show the parent of a compound that is named as a salt. Activity calls are given as the source filed them. No cut-off for these calls is given here. Peptide text beside a SMILES is read from it.

How the values were obtained:
[1] = target: T1, L-lactate dehydrogenase B chain (Homo sapiens, UniProt P07195); assay: Binding affinity to truncated human N-terminal His6-tagged LDH-H expressed in Escherichia coli Rosetta (DE3) after 5 mins by Red-NHS fluorescence dye-based microscale thermophoresis analysis
[2] = target: T1, L-lactate dehydrogenase B chain; assay: Binding affinity to truncated human N-terminal His6-tagged LDH-H expressed in Escherichia coli Rosetta (DE3) in sodium phosphate buffer at pH 7.6 by WaterLOGSY NMR analysis
Target sequence in this assay (P07195 2-334 limits assumed): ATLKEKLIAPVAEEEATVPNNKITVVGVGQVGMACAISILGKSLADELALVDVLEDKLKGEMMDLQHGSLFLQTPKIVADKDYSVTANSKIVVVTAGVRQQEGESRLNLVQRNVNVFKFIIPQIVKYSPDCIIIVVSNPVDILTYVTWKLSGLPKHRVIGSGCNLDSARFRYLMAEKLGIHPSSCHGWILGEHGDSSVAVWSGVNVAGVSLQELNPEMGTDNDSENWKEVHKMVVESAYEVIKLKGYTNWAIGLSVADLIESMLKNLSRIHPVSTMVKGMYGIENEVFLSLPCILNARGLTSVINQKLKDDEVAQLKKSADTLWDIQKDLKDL

[3] = target: T1, L-lactate dehydrogenase B chain; assay: Competitive binding affinity to recombinant full length human His-tagged LDH-1 (1 to 322 residues) expressed in Escherichia coli assessed as protein-compound interaction at N-terminal domain after 5 mins by Red-NHS fluorescence dye based microscale thermophoresis analysis
Target sequence in this assay (P07195 2-334 limits assumed): as above

[4] = target: L-lactate dehydrogenase A chain (Oryctolagus cuniculus) (UniProt P13491); assay: Binding affinity to rabbit LDH-M assessed as acid-induced dimerization by measuring fluorescence recovery at pH 5 by nano differential scanning fluorimetry analysis
[5] = target: L-lactate dehydrogenase A chain (Oryctolagus cuniculus) (UniProt P13491); assay: Binding affinity to rabbit LDH-5 assessed as acid-induced dimerization by measuring fluorescence recovery at pH 7.6 by nano differential scanning fluorimetry analysis
[6] = target: T2, L-lactate dehydrogenase A chain (Homo sapiens, UniProt P00338); assay: Competitive binding affinity to human N-terminal His6-tagged LDH-5 expressed in Escherichia coli Rosetta (DE3) assessed as protein-compound interaction at N-terminal domain after 5 mins by Red-NHS fluorescence dye-based microscale thermophoresis analysis
[7] = Conformational stability in sodium phosphate buffer assessed as increase in alpha-helicity with strong theta 206 band formation at 100 uM by circular dichroism method; type: physicochemical
[8] = target: T2, L-lactate dehydrogenase A chain; assay: Binding affinity to human N-terminal His6-tagged LDH-5 expressed in Escherichia coli Rosetta (DE3) assessed as thermal denaturation up to 500 uM by nano differential scanning fluorimetry analysis
[9] = target: T1, L-lactate dehydrogenase B chain; assay: Binding affinity to recombinant full length human His-tagged LDH-1 (1 to 322 residues) expressed in Escherichia coli assessed as thermal denaturation up to 500 uM by nano differential scanning fluorimetry analysis
Target sequence in this assay (P07195 2-334 limits assumed): as above

[10] = tested on: L-lactate dehydrogenase B chain (Homo sapiens), P07195 [L4A]; assay: Binding affinity to full length human N-terminal His6-tagged LDH-H L3A mutant expressed in Escherichia coli Rosetta (DE3) assessed as change in melting temperature heated up to 95 degree C for 3 mins by nano differential scanning fluorimetry analysis
[11] = tested on: L-lactate dehydrogenase B chain (Homo sapiens), P07195 [T3A]; assay: Binding affinity to full length human N-terminal His6-tagged LDH-H T2A mutant expressed in Escherichia coli Rosetta (DE3) assessed as melting temperature heated up to 95 degree C for 3 mins by nano differential scanning fluorimetry analysis
[12] = target: L-lactate dehydrogenase B chain (Homo sapiens, UniProt P07195, K7A); assay: Binding affinity full length human N-terminal His6-tagged LDH-H K6A mutant expressed in Escherichia coli Rosetta (DE3) assessed as tetrameric disruption by nano differential scanning fluorimetry analysis
[13] = tested on: L-lactate dehydrogenase B chain (Homo sapiens), P07195 [L4A]; assay: Binding affinity to full length human N-terminal His6-tagged LDH-H L3A mutant expressed in Escherichia coli Rosetta (DE3) assessed as melting temperature heated up to 95 degree C for 3 mins by nano differential scanning fluorimetry analysis
[14] = target: L-lactate dehydrogenase B chain (Homo sapiens, UniProt P07195, K5A); assay: Binding affinity full length human N-terminal His6-tagged LDH-H K4A mutant expressed in Escherichia coli Rosetta (DE3) assessed as tetrameric disruption by nano differential scanning fluorimetry analysis
[15] = tested on: L-lactate dehydrogenase B chain (Homo sapiens), P07195 [K5A]; assay: Binding affinity to full length human N-terminal His6-tagged LDH-H K4A mutant expressed in Escherichia coli Rosetta (DE3) assessed as melting temperature heated up to 95 degree C for 3 mins by nano differential scanning fluorimetry analysis
[16] = target: L-lactate dehydrogenase B chain (Homo sapiens, UniProt P07195, L4A); assay: Binding affinity full length human N-terminal His6-tagged LDH-H L3A mutant expressed in Escherichia coli Rosetta (DE3) assessed as tetrameric disruption by nano differential scanning fluorimetry analysis
[17] = tested on: L-lactate dehydrogenase B chain (Homo sapiens), P07195 [L8A]; assay: Binding affinity to full length human N-terminal His6-tagged LDH-H L7A mutant expressed in Escherichia coli Rosetta (DE3) assessed as melting temperature heated up to 95 degree C for 3 mins by nano differential scanning fluorimetry analysis
[18] = target: L-lactate dehydrogenase B chain (Homo sapiens, UniProt P07195, I9A); assay: Binding affinity full length human N-terminal His6-tagged LDH-H I8A mutant expressed in Escherichia coli Rosetta (DE3) assessed as tetrameric disruption by nano differential scanning fluorimetry analysis
[19] = target: L-lactate dehydrogenase B chain (Homo sapiens, UniProt P07195, T3A); assay: Binding affinity full length human N-terminal His6-tagged LDH-H T2A mutant expressed in Escherichia coli Rosetta (DE3) assessed as tetrameric disruption by nano differential scanning fluorimetry analysis
[20] = tested on: L-lactate dehydrogenase B chain (Homo sapiens), P07195 [I9A]; assay: Binding affinity to full length human N-terminal His6-tagged LDH-H I8A mutant expressed in Escherichia coli Rosetta (DE3) assessed as changed in melting temperature heated up to 95 degree C for 3 mins by nano differential scanning fluorimetry analysis
[21] = tested on: L-lactate dehydrogenase B chain (Homo sapiens), P07195 [K7A]; assay: Binding affinity to full length human N-terminal His6-tagged LDH-H K6A mutant expressed in Escherichia coli Rosetta (DE3) assessed as melting temperature heated up to 95 degree C for 3 mins by nano differential scanning fluorimetry analysis
[22] = tested on: L-lactate dehydrogenase B chain (Homo sapiens), P07195 [I9A]; assay: Binding affinity to full length human N-terminal His6-tagged LDH-H I8A mutant expressed in Escherichia coli Rosetta (DE3) assessed as melting temperature heated up to 95 degree C for 3 mins by nano differential scanning fluorimetry analysis
[23] = target: T1, L-lactate dehydrogenase B chain; assay: Binding affinity to full length human N-terminal His6-tagged LDH-H expressed in Escherichia coli Rosetta (DE3) assessed as melting temperature heated up to 95 degree C for 3 mins by nano differential scanning fluorimetry analysis
Target sequence in this assay (P07195 2-334 limits assumed): as above

[24] = tested on: L-lactate dehydrogenase B chain (Homo sapiens), P07195 [E6A]; assay: Binding affinity to full length human N-terminal His6-tagged LDH-H E5A mutant expressed in Escherichia coli Rosetta (DE3) assessed as melting temperature heated up to 95 degree C for 3 mins by nano differential scanning fluorimetry analysis
[25] = target: T1, L-lactate dehydrogenase B chain; assay: Binding affinity to truncated human N-terminal His6-tagged LDH-H expressed in Escherichia coli Rosetta (DE3) assessed as melting temperature heated up to 95 degree C for 3 mins by nano differential scanning fluorimetry analysis
Target sequence in this assay (P07195 2-334 limits assumed): as above

[26] = target: T1, L-lactate dehydrogenase B chain; assay: Binding affinity to full length human N-terminal His6-tagged LDH-H expressed in Escherichia coli Rosetta (DE3) assessed as effect on tetramerization site at 100 to 200 uM in sodium phosphate buffer at pH 7.6 by WaterLOGSY NMR analysis
Target sequence in this assay (P07195 2-334 limits assumed): as above

[27] = Conformational stability in sodium phosphate buffer assessed as helical structural propensity at 200 uM and pH 7.6 at 25 degree C by circular dichroism method; type: physicochemical; details: pH 7.6, 200 µM
[28] = target: T1, L-lactate dehydrogenase B chain; assay: Binding affinity to full length human N-terminal His6-tagged LDH-H expressed in Escherichia coli Rosetta (DE3) in sodium phosphate buffer at pH 7.6 by WaterLOGSY NMR analysis
Target sequence in this assay (P07195 whole entry, the tested form may be a part): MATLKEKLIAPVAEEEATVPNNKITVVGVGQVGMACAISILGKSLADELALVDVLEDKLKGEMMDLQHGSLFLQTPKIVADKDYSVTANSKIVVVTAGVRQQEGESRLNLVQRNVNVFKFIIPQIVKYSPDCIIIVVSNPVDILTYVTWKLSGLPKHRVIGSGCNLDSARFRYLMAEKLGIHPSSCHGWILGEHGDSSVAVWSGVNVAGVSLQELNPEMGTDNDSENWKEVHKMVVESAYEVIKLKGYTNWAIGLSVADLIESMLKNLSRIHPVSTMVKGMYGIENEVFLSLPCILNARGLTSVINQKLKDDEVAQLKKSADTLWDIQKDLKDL

[29] = Conformational stability in sodium phosphate buffer assessed as increase in alpha-helicity with theta 222 band formation at 100 uM by circular dichroism method; type: physicochemical
[30] = Conformational stability in water assessed as helical structural propensity by 2D NMR-ROESY analysis; type: physicochemical; details: buffer
[31] = target: L-lactate dehydrogenase A chain (Oryctolagus cuniculus) (UniProt P13491); assay: Binding affinity to rabbit LDH-5 assessed as acid-induced dimerization by measuring fluorescence recovery at 50 uM pH 7.6 by nano differential scanning fluorimetry analysis
[32] = Conformational stability in water assessed as helical structural propensity by circular dichroism method; type: physicochemical; details: buffer
[33] = target: T1, L-lactate dehydrogenase B chain; assay: Binding affinity to full length human N-terminal His6-tagged LDH-H expressed in Escherichia coli Rosetta (DE3) assessed as saturation transfer at lipophilic residues at 800 uM in sodium phosphate buffer at pH 7.6 by WaterLOGSY NMR analysis
[34] = target: T1, L-lactate dehydrogenase B chain; assay: Binding affinity to recombinant full length human His-tagged LDH-1 (1 to 322 residues) expressed in Escherichia coli by WaterLOGSY NMR analysis
Target sequence in this assay (P07195 whole entry, the tested form may be a part): as above

Sequence of L-lactate dehydrogenase B chain (Homo sapiens), P07195 [I9A] (P07195 whole entry I9A): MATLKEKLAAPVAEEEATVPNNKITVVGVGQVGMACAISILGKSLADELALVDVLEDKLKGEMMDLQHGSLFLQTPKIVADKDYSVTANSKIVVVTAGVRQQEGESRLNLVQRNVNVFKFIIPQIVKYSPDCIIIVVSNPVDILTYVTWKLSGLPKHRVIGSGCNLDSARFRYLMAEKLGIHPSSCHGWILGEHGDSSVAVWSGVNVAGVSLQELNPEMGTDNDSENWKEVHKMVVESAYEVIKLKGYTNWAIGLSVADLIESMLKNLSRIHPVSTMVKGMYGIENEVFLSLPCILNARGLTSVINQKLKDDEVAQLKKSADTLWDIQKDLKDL
Sequence of L-lactate dehydrogenase B chain (Homo sapiens), P07195 [L4A] (P07195 whole entry L4A): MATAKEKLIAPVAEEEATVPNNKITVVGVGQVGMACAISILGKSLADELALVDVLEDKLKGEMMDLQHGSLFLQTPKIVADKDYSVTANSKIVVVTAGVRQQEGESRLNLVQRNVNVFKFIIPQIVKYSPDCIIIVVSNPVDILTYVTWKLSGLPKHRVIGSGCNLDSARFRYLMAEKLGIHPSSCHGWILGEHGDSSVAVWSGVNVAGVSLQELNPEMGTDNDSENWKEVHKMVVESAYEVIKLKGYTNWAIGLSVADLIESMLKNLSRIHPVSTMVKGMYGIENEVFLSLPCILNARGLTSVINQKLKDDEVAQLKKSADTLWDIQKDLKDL
Sequence of L-lactate dehydrogenase B chain (Homo sapiens), P07195 [K7A] (P07195 whole entry K7A): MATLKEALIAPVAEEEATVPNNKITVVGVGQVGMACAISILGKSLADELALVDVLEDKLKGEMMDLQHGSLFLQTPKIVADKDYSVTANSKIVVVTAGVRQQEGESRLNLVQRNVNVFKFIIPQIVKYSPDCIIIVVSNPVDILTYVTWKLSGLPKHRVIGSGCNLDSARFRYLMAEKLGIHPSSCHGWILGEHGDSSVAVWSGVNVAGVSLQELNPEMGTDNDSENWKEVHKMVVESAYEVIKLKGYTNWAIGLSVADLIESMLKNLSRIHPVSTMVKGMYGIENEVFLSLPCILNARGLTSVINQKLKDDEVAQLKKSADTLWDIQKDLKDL
Sequence of L-lactate dehydrogenase B chain (Homo sapiens, UniProt P07195, L4A) (P07195 2-334 L4A limits assumed): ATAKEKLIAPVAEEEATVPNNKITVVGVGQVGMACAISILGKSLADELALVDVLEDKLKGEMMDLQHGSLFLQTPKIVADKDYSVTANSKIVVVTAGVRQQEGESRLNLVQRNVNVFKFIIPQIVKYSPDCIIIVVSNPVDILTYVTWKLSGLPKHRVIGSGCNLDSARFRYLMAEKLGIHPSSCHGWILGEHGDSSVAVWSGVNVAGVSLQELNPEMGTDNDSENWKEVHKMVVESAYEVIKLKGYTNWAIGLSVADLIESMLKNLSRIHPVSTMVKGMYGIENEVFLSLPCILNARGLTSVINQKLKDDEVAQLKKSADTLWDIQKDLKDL
Sequence of L-lactate dehydrogenase B chain (Homo sapiens, UniProt P07195, I9A) (P07195 2-334 I9A limits assumed): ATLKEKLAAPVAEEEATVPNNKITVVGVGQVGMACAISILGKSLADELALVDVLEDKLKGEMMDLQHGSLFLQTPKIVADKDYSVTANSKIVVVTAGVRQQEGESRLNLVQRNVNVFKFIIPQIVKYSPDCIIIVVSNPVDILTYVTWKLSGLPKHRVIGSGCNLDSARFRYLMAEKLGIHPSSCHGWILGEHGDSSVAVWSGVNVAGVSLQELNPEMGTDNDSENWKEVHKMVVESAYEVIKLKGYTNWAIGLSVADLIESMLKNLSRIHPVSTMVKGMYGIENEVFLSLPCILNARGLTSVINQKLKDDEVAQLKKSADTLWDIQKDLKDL
Sequence of L-lactate dehydrogenase B chain (Homo sapiens), P07195 [T3A] (P07195 whole entry T3A): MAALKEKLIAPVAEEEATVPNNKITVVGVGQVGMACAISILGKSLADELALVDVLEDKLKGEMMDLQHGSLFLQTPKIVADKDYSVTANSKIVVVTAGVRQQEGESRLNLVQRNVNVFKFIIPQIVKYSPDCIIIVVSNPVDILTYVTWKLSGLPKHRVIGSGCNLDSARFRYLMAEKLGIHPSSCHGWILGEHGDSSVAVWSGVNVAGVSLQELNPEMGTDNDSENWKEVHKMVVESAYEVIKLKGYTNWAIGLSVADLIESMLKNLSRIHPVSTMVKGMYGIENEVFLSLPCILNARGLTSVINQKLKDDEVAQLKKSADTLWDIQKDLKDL
Sequence of L-lactate dehydrogenase B chain (Homo sapiens, UniProt P07195, T3A) (P07195 2-334 T3A limits assumed): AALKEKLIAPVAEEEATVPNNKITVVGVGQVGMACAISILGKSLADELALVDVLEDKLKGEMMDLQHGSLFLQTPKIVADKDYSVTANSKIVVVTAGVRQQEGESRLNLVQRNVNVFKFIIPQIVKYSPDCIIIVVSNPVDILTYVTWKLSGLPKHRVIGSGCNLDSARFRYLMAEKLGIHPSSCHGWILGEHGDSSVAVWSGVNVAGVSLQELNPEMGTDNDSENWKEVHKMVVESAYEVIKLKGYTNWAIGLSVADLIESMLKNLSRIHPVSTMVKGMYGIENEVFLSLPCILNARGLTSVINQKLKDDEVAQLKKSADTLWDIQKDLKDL
Sequence of L-lactate dehydrogenase B chain (Homo sapiens), P07195 [K5A] (P07195 whole entry K5A): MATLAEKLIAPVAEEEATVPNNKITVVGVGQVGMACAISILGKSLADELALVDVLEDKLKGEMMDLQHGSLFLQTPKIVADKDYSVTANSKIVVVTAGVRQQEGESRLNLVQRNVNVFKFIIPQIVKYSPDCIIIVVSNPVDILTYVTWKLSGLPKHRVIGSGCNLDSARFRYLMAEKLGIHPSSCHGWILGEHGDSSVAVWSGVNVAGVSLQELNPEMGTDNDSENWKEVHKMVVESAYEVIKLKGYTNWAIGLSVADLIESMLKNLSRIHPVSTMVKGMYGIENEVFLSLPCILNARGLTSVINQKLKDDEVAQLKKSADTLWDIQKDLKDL
Sequence of L-lactate dehydrogenase B chain (Homo sapiens, UniProt P07195, K7A) (P07195 2-334 K7A limits assumed): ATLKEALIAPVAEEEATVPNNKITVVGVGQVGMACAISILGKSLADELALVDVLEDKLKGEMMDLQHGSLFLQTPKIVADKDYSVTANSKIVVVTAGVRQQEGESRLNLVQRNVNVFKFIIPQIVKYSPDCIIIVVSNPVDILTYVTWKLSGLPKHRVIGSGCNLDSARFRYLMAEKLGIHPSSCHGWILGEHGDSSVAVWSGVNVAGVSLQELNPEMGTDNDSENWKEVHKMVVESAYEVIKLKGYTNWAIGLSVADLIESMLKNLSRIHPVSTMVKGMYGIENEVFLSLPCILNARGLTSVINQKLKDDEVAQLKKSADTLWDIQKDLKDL
Sequence of L-lactate dehydrogenase B chain (Homo sapiens), P07195 [L8A] (P07195 whole entry L8A): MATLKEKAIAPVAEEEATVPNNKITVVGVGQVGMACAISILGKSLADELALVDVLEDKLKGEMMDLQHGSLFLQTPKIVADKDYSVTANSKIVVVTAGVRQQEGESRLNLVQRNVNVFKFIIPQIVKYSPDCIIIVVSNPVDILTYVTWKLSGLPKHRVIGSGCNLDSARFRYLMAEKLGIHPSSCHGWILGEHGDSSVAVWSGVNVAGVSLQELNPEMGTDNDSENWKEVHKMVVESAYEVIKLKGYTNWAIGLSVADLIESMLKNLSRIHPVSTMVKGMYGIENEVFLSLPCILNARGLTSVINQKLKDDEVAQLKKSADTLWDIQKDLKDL
Sequence of L-lactate dehydrogenase B chain (Homo sapiens), P07195 [E6A] (P07195 whole entry E6A, the tested form may be a part): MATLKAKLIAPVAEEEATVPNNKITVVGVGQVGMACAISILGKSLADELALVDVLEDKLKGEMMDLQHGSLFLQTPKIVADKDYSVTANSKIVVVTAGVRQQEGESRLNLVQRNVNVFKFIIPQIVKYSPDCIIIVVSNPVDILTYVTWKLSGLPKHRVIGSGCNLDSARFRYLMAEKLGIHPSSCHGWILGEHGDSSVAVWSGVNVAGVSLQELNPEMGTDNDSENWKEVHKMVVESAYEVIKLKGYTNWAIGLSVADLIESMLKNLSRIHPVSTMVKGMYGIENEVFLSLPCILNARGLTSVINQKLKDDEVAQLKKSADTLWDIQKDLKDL

CC[C@H](C)[C@@H]1NC(=O)[C@H](CC(C)C)NC(=O)[C@@H](NC(=O)[C@H](CCC(=O)O)NC(=O)[C@H](CCCCN)NC(=O)[C@H](CC(C)C)NC(=O)[C@@H](NC(=O)[C@H](C)N)[C@@H](C)O)CSCc2cccc(c2)CSC[C@@H](C(N)=O)NC(=O)[C@H](C)NC1=O (HELM PEPTIDE1{A.T.L.K.E.C.L.I.A.C.[am]}|CHEM1{[c1cc(C[*:1])cc(C[*:2])c1]}$PEPTIDE1,CHEM1,6:R3-1:R1|PEPTIDE1,CHEM1,10:R3-1:R2$$$V2.0)
Kd [1]: > 1 mM

CC[C@H](C)[C@@H]1NC(=O)[C@H](CC(C)C)NC(=O)[C@@H](NC(=O)[C@H](CCC(=O)O)NC(=O)[C@H](CCCCN)NC(=O)[C@H](CC(C)C)NC(=O)[C@@H](NC(=O)[C@H](C)N)[C@@H](C)O)CCCCNC1=O (HELM PEPTIDE1{A.T.L.K.E.K.L.I}$PEPTIDE1,PEPTIDE1,6:R3-8:R2$$$V2.0)
Kd [1]: > 1 mM

CC[C@H](C)[C@H](NC(=O)[C@H](CC(C)C)NC(=O)C(C)(C)NC(=O)[C@H](CCC(=O)O)NC(=O)[C@H](CCCCN)NC(=O)[C@H](CC(C)C)NC(=O)[C@@H](NC(=O)[C@H](C)N)[C@@H](C)O)C(N)=O (HELM PEPTIDE1{A.T.L.K.E.[Aib].L.I.[am]}$$$$V2.0)
Activity [1]: inactive | Activity [2]: Active

CC[C@H](C)[C@H](NC(=O)[C@H](CC(C)C)NC(=O)[C@H](CCCCN)NC(=O)[C@H](CCC(=O)O)NC(=O)C(C)(C)NC(=O)[C@H](CC(C)C)NC(=O)[C@@H](NC(=O)[C@H](C)N)[C@@H](C)O)C(N)=O (HELM PEPTIDE1{A.T.L.[Aib].E.K.L.I.[am]}$$$$V2.0)
Activity [1]: inactive | Activity [2]: Active

CC[C@H](C)C(NC(=O)[C@H](CC(C)C)NC(=O)[C@H](CCCCN)NC(=O)[C@H](CCC(=O)O)NC(=O)[C@@H]1CSCc2cccc(c2)CSC[C@H](N)C(=O)N[C@@H](C)C(=O)N[C@@H]([C@@H](C)O)C(=O)N[C@@H](CC(C)C)C(=O)N1)C(N)=O (stereo partly drawn) (HELM PEPTIDE1{C.A.T.L.C.E.K.L.[CC[C@H](C)C(N[*:1])C(=O)[*:2]].[am]}|CHEM1{[c1cc(C[*:1])cc(C[*:2])c1]}$PEPTIDE1,CHEM1,1:R3-1:R1|PEPTIDE1,CHEM1,5:R3-1:R2$$$V2.0)
Kd [1]: > 1 mM

CC[C@H](C)[C@H](NC(=O)[C@H](CC(C)C)NC(=O)[C@H](CCCCN)NC(=O)[C@@H]1CSCc2cccc(c2)CSC[C@H](N)C(=O)N[C@@H]([C@@H](C)O)C(=O)N[C@@H](CC(C)C)C(=O)N[C@@H](CCCCN)C(=O)N1)C(N)=O (HELM PEPTIDE1{C.T.L.K.C.K.L.I.[am]}|CHEM1{[c1cc(C[*:1])cc(C[*:2])c1]}$PEPTIDE1,CHEM1,1:R3-1:R1|PEPTIDE1,CHEM1,5:R3-1:R2$$$V2.0)
Activity [3]: inactive | Activity [4]: inactive | Activity [5]: Active | Activity [6]: inactive | Stability [7]: Stable | Activity [8]: inactive | Activity [9]: inactive

N=C(N)N [GUANIDINE HYDROCHLORIDE]
ΔTm [10]: 13.3 °C | Tm [11]: 72.4 °C | EC50 [12]: 954 mM | Tm [13]: 61.2 °C | EC50 [14]: 991 mM | Tm [15]: 65.8 °C | EC50 [16]: 624 mM | Tm [17]: 55.6 °C | EC50 [18]: 233 mM | EC50 [19]: 978 mM | ΔTm [20]: 24.6 °C | Tm [21]: 67.9 °C | Tm [22]: 49.9 °C | Tm [23]: 74.5 °C | Tm [24]: 73.3 °C | Tm [25]: 57.5 °C

Ac-TLKEKLI-NH2
Activity [26]: inactive | Stability [27]: Unstable

H-AALKEKLI-NH2
Activity [26]: inactive

H-ATAKEKLI-NH2
Activity [26]: inactive

H-ATGKEKLI-NH2
Activity [26]: inactive

H-ATLAEKLI-NH2
Activity [26]: inactive

H-ATLKAKLI-NH2
Activity [26]: inactive

H-ATLKDQLI-OH
Kd [28]: 1.49 mM

H-ATLKEALI-NH2
Activity [26]: inactive

H-ATLKEKAI-NH2
Activity [26]: inactive

H-ATLKEKL-NH2
Activity [26]: inactive | Stability [27]: Unstable

H-ATLKEKLA-NH2
Activity [26]: inactive

H-ATLKEKLG-NH2
Activity [26]: inactive

H-ATLKEKLI-NH2
Stability [29]: Stable | Stability [30]: Unstable | Activity [31]: Active | Kd [28]: 1.02 mM | Stability [32]: Unstable | Activity [33]: Active | Activity [34]: Not Active

H-ATLKEKLIAPVAE-NH2
Kd [28]: 1.05 mM

H-GTLKEKLI-NH2
Activity [26]: inactive
